Data set [1] deals with mir-143 binding site within the coding sequence of ERK5. Nature of the data set: pGL3-ERK5-cds luciferase assays in HeLa cells. Type of data set: cell-based, human. As to conditions: for luciferase expression: HeLa cells, 24 hours. The protocol:
An expression system based on the pGL3-Control (Promega Corp., Madison Wis.) reporter vector and comprising predicted miRNA binding sites was used in transient transfections of HeLa cells with plasmids expressing oligomeric compounds mimicking miRNAs, pre-miRNAs or pri-miRNAs in order to assess the ability of these miRNA mimics to bind and regulate the expression of the luciferase reporter. The effect of increasing the copy number of the miRNA-binding site in the target was also tested by including multiple binding sites in artificial reporter constructs. It is understood that the presence of multiple miRNA-binding sites in a target can include binding sites for different miRNAs.
The following reporter plasmids were constructed by cloning the specified fragment into the XbaI site of the pGL3-control plasmid, placing the potential miRNA-binding site in the 3′-UTR of the luciferase reporter: The reporter plasmid pGL3-bulge(×3) contains three contiguous copies of the sequence ([…]; herein incorporated as SEQ ID NO: 874) which represents a sequence complementary to the mir-143 miRNA except that it is missing 2 nucleotides such that the mir-143 miRNA is presumed to adopt a bulged structure when it hybridizes to this target sequence. The pGL3-GLO1 reporter plasmid contains a DNA fragment comprising the 3′-UTR of the GLO1 sequence; this fragment was PCR-amplified using a primer beginning at nucleotide number 621 of the GLO1 sequence (GenBank Accession NM_006708.1, SEQ ID NO: 821) and the downstream primer hybridizing to the poly A tail. The pGL3-PP2A reporter plasmid contains a DNA fragment comprising the 3′-UTR of the PP2A gene; this fragment was PCR-amplified using a primer beginning at nucleotide number 921 of the PP2A sequence (GenBank Accession NM_004156.1) and the downstream primer hybridizing to the poly A tail. The reporter plasmid pGL3-ERK5-3′-UTR(×1) contains one copy of the sequence […] (herein incorporated as SEQ ID NO: 875), found in the 3′-UTR of ERK5 and predicted by Lewis, et al. to be bound by the mir-143 miRNA, and the reporter plasmid pGL3-ERK5-3′UTR(×3) has three contiguous copies of this sequence. The reporter plasmid pGL3-ERK5-3′UTR(ext) contains one copy of the sequence […] (herein incorporated as SEQ ID NO: 876), which includes an additional ten nucleotides at either end of the mir-143 binding site in 3′-UTR of ERK5 predicted by Lewis, et al. (Lewis et al., Cell, 2003, 115, 787-798). The plasmids pGL3-ERK5-cds(×1), pGL3-ERK5-cds(×2), pGL3-ERK5-cds(×3), and pGL3-ERK5-cds(×5) contain one, two, three or five contiguous copies, respectively, of the novel mir-143 binding site ([…]; herein incorporated as SEQ ID NO: 877) we identified within the coding sequence of ERK5. The unmodified pGL3-Control luciferase reporter vector was used as a negative control, and the pGL3-mir-143 sensor reporter plasmid was used as a positive control.
HeLa cells were routinely cultured and passaged as described. In some embodiments, HeLa cells were transfected with 0.05 μg of the relevant pGL3-sensor plasmid and 0.01 μg pRL-CMV plasmid. Additionally, in some embodiments, cells were treated at various dosages (11 nM, 33 nM, and 100 nM) with the following oligomeric compound mimics: 1) ds-mir-143, or 2) ds-Control as described. In accordance with methods described in Example 12, a luciferase assay was performed 24-hours after transfection. The results, shown in Tables 40 and 41, are an average of three trials. Data are presented as percent untreated control (luciferase plasmid only, not treated with oligomeric compound) luciferase expression, normalized to pRL-CMV levels.

The subject of the next data set is DIO mice. Nature of the data set: Diet-induced obesity (DIO) mice. Type of data set: in vivo. As to conditions: 25 mg/kg s.c. twice weekly.

Take “ds-mir-143: double-stranded RNA of ISIS 342199 hybridized to its perfect complement ISIS 342200 (sense UGAGAUGAAGCACUGUAGCUCA; antisense UGAGCUACAGUGCUUCAUCUCA; RNA, backbone not given here)”: the “luciferase expression from pGL3-ERK5-cds(×1) or pGL3-ERK5-cds(×2)” value in data set [1] (HeLa, 100 nM) is given as “did reduce luciferase expression”. In data set [1] (HeLa, 11, 33 and 100 nM), the “luciferase activity from pGL3-ERK5-cds(×3) or pGL3-ERK5-cds(×5)” value was “reduction in luciferase activity”. In data set [1] (HeLa, 11, 33 and 100 nM), the “luciferase activity from pGL3-ERK5-cds(×5), dose response” value was “dose-responsiveness”. The “luciferase activity from pGL3-ERK5-cds(×1) or pGL3-ERK5-cds(×2)” value in data set [1] (HeLa, 11- or 33 nM) is reported as “did not appear to inhibit luciferase activity”. The luciferase expression in data set [1] (Table 41, pGL3-ERK5-cds(x1), 11 nM) was determined as 101.3 percent untreated control; in data set [1] (Table 41, pGL3-ERK5-cds(x1), 33 nM), 115.4 percent untreated control; in data set [1] (Table 41, pGL3-ERK5-cds(x1), 100 nM) it was 77.4 percent untreated control; in data set [1] (Table 41, pGL3-ERK5-cds(x2), 11 nM), 92.7 percent untreated control; in data set [1] (Table 41, pGL3-ERK5-cds(x2), 33 nM) it was 113.8 percent untreated control; in data set [1] (Table 41, pGL3-ERK5-cds(x2), 100 nM), 63.6 percent untreated control. Moreover, the luciferase expression in data set [1] (Table 41, pGL3-ERK5-cds(x3), 11 nM) is given as 73.5 percent untreated control; in data set [1] (Table 41, pGL3-ERK5-cds(x3), 33 nM), 77.9 percent untreated control; in data set [1] (Table 41, pGL3-ERK5-cds(x3), 100 nM), 49.4 percent untreated control; in data set [1] (Table 41, pGL3-ERK5-cds(x5), 11 nM) it was 49.4 percent untreated control; in data set [1] (Table 41, pGL3-ERK5-cds(x5), 33 nM), 44.5 percent untreated control; in data set [1] (Table 41, pGL3-ERK5-cds(x5), 100 nM), 23.9 percent untreated control.

Take “CTAGTGGTCCTAAACATTTCAC (chemistry not given here) [ISIS 327878, uniform 2′-MOE PS; targets mir-203]”: the “liver toxicity (plasma transaminase levels, weekly)” value with DIO mice was “did not appear to cause liver toxicity”.

Values taken from patent publication US8178506B2, “Oligomeric compounds and compositions for use in modulation of small non-coding RNAs” (Regulus Therapeutics Inc., priority 2003, dated 2012).
